# Measured values reported in the kinase profiling compilation of Christmann-Franck et al. (2016).
# Tests used:
# Assay in all cases: radiometric filter-binding kinase assay, Kinase HotSpot
# Settings in all cases: compound 0.5 µM; ATP 10 µM
# ACVR1B (human) = ACVR1B (human) (UniProt P36896)
# AURKB (human) = AURKB (human) (UniProt Q96GD4)
# CAMK1 (human) = CAMK1 (human) (UniProt Q14012)
# CHEK1 (human) = CHEK1 (human) (UniProt O14757)
# CLK2 (human) = CLK2 (human) (UniProt P49760)
# DAPK2 (human) = DAPK2 (human) (UniProt Q9UIK4)
# EPHA3 (human) = EPHA3 (human) (UniProt P29320)
# EPHB3 (human) = EPHB3 (human) (UniProt P54753)
# ERBB2 (human) = ERBB2 (human) (UniProt P04626)
# FGFR1 (human) = FGFR1 (human) (UniProt P11362)
# GSK3B (human) = GSK3B (human) (UniProt P49841)
# IKBKE (human) = IKBKE (human) (UniProt Q14164)
# IRAK1 (human) = IRAK1 (human) (UniProt P51617)
# MAPK10 (human) = MAPK10 (human) (UniProt P53779)
# MAPK11 (human) = MAPK11 (human) (UniProt Q15759)
# MAPKAPK5 (human) = MAPKAPK5 (human) (UniProt Q8IW41)
# MET (human) = MET (human) (UniProt P08581)
# MINK1 (human) = MINK1 (human) (UniProt Q8N4C8)
# MKNK2 (human) = MKNK2 (human) (UniProt Q9HBH9)
# MLTK (human) = MLTK (human) (UniProt Q9NYL2)
# MST4 (human) = MST4 (human) (UniProt Q9P289)
# MYLK (human) = MYLK (human) (UniProt Q15746)
# MYLK2 (human) = MYLK2 (human) (UniProt Q9H1R3)
# NEK1 (human) = NEK1 (human) (UniProt Q96PY6)
# NEK7 (human) = NEK7 (human) (UniProt Q8TDX7)
# PAK4 (human) = PAK4 (human) (UniProt O96013)
# PHKG2 (human) = PHKG2 (human) (UniProt P15735)
# PLK1 (human) = PLK1 (human) (UniProt P53350)
# PNCK (human) = PNCK (human) (UniProt Q6P2M8)
# PRKCB1 (human) = PRKCB1 (human) (UniProt P05771)
# PRKCI (human) = PRKCI (human) (UniProt P41743)
# PRKD2 (human) = PRKD2 (human) (UniProt Q9BZL6)
# RET (human) = RET (human) (UniProt P07949)
# RPS6KA3 KD1 KD2 (human) = RPS6KA3 KD1 KD2 (human) (UniProt P51812)
# RPS6KA6 KD1 KD2 (human) = RPS6KA6 KD1 KD2 (human) (UniProt Q9UK32)
# RPS6KB1 (human) = RPS6KB1 (human) (UniProt P23443)
# STK25 (human) = STK25 (human) (UniProt O00506)
# STK3 (human) = STK3 (human) (UniProt Q13188)
# STK38 (human) = STK38 (human) (UniProt Q15208)
# TYRO3 (human) = TYRO3 (human) (UniProt Q06418)
# ULK3 (human) = ULK3 (human) (UniProt Q6PHR2)
# YES1 (human) = YES1 (human) (UniProt P07947)
# Sequence of CLK2 (human) (P49760 whole entry, looked up): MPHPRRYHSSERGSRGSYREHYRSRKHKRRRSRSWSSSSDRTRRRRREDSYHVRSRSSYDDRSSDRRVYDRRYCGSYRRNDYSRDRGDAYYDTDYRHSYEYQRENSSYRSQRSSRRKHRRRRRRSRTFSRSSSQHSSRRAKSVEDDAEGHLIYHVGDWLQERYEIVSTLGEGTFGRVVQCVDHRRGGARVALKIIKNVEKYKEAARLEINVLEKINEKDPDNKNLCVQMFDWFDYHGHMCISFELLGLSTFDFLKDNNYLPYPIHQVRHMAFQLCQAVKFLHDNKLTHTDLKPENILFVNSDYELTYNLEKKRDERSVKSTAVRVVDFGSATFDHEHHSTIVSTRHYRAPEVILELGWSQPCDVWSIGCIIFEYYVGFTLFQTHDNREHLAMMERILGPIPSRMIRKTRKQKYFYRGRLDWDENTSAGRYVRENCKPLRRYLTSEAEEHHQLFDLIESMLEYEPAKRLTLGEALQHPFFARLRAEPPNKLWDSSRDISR
# Sequence of MET (human) (P08581 whole entry, looked up): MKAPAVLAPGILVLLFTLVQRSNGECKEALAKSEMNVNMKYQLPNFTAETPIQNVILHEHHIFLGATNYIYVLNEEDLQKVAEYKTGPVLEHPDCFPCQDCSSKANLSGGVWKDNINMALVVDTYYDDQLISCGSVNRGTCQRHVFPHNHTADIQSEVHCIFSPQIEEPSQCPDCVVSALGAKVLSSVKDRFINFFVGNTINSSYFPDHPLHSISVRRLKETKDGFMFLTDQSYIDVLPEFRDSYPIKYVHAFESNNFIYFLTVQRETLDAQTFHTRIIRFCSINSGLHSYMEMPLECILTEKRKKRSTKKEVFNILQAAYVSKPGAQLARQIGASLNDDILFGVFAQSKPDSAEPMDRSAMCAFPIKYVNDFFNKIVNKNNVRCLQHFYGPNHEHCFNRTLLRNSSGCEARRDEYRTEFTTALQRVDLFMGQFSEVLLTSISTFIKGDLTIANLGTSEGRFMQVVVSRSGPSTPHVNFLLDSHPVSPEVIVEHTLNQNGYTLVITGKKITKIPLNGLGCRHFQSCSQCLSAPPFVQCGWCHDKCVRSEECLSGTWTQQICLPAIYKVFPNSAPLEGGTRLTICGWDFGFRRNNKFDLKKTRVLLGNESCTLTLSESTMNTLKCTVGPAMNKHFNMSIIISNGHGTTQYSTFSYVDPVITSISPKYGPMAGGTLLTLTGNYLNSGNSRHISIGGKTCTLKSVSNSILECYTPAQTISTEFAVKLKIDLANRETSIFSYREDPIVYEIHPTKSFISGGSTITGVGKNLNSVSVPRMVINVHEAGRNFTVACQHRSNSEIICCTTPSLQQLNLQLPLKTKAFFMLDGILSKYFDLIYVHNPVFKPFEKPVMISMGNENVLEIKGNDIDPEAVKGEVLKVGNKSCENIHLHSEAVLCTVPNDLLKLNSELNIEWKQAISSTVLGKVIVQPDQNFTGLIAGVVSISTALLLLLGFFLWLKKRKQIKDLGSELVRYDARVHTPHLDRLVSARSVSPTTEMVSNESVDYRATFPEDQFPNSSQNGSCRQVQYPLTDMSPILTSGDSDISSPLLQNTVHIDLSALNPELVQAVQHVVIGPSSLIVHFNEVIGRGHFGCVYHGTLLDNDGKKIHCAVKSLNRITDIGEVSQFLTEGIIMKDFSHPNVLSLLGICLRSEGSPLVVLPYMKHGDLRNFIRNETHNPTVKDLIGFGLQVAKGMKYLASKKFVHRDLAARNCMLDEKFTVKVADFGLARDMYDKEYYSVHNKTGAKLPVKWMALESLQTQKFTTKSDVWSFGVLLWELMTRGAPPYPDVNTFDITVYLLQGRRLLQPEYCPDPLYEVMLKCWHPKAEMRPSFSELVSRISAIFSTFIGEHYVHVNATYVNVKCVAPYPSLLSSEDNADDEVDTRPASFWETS
# Sequence of PHKG2 (human) (P15735 whole entry, looked up): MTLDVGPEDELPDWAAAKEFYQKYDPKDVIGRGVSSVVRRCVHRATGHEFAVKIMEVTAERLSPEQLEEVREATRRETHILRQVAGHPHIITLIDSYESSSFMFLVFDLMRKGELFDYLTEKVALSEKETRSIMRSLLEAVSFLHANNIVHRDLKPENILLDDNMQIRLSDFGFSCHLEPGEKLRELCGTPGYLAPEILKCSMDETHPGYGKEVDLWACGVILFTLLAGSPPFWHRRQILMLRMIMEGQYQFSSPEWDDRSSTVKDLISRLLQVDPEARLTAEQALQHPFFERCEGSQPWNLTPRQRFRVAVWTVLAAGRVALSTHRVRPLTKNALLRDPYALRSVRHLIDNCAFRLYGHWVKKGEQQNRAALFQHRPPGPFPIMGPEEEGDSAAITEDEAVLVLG
# Sequence of EPHA3 (human) (P29320 whole entry, looked up): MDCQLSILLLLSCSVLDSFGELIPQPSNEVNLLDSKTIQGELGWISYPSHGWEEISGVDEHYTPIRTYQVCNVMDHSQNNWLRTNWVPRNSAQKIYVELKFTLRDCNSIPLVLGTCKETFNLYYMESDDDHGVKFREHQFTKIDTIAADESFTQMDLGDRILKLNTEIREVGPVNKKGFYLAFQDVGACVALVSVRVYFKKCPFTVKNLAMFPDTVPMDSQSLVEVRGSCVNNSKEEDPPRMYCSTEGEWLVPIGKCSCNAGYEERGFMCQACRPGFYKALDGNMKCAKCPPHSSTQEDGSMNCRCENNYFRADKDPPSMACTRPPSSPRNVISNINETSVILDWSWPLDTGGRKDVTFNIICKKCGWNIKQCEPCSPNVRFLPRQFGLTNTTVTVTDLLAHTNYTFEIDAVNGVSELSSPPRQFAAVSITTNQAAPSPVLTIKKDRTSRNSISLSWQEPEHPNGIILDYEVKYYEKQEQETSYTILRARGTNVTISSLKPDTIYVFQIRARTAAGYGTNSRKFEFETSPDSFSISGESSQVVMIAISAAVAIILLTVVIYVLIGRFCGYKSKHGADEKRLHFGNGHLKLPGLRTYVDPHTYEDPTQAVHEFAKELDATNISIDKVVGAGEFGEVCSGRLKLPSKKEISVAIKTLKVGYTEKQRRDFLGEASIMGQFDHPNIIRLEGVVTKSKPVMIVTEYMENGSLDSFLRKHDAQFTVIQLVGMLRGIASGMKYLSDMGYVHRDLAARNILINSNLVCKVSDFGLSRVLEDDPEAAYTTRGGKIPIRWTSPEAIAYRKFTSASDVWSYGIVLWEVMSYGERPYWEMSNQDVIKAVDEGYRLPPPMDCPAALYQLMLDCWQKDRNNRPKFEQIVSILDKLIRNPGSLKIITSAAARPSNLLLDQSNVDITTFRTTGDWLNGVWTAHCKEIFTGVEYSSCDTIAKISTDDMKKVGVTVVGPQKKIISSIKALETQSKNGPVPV
# Sequence of STK38 (human) (Q15208 whole entry, looked up): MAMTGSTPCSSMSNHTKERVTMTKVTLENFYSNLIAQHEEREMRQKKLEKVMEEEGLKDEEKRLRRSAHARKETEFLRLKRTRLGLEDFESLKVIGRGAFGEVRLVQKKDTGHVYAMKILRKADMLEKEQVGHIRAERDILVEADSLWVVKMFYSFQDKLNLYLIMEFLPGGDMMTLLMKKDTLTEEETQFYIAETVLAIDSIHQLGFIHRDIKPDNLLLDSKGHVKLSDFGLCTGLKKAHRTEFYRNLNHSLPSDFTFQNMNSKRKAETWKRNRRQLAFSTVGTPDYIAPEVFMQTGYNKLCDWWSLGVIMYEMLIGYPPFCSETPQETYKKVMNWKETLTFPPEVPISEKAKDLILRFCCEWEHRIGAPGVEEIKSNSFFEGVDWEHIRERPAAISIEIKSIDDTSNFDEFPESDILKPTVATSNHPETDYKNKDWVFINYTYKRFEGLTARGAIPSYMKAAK
# Sequence of MYLK2 (human) (Q9H1R3 whole entry, looked up): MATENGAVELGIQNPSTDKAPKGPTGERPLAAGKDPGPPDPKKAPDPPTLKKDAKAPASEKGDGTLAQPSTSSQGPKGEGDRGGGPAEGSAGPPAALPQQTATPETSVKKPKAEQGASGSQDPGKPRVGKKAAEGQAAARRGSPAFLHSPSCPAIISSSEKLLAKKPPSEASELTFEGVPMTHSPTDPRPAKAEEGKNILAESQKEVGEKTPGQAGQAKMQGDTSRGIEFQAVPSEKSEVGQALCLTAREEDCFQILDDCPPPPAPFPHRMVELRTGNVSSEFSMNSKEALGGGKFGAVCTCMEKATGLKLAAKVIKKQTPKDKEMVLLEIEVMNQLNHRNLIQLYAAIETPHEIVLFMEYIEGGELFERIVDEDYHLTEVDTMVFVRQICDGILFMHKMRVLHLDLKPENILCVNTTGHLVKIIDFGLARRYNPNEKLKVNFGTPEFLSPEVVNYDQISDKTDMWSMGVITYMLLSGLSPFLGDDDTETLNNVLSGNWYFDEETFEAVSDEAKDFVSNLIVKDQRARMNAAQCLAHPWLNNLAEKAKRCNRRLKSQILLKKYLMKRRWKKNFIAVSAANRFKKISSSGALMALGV
# Sequence of IRAK1 (human) (P51617 whole entry, looked up): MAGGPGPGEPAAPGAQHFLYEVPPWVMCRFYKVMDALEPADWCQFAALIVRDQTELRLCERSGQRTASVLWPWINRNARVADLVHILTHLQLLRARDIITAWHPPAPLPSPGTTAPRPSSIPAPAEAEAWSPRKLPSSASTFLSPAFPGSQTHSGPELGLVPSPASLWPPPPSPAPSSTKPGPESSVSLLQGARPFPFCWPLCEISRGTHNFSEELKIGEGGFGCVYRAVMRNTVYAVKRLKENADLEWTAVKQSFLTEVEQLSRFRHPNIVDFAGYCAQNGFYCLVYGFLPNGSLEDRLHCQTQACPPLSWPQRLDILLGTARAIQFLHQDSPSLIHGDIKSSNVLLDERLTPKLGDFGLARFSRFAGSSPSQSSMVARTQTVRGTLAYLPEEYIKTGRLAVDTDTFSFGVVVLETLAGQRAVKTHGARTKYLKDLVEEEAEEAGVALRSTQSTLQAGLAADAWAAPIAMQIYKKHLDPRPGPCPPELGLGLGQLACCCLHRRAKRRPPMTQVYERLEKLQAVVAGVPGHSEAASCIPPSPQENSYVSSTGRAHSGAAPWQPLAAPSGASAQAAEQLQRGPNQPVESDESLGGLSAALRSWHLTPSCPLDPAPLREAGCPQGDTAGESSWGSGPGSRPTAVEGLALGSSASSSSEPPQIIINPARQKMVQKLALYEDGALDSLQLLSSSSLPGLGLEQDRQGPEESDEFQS
smiles,measurement,setting,value
Cc1[nH]c(/C=C2\C(=O)Nc3ccc(S(=O)(=O)N(C)c4cccc(Cl)c4)cc32)c(C)c1C(=O)N1CCN(C)CC1,residual activity,ACVR1B (human),102%
same,residual activity,AURKB (human),19.2%
same,residual activity,CAMK1 (human),95.8%
same,residual activity,CHEK1 (human),89.7%
same,residual activity,CLK2 (human),5.1%
same,residual activity,DAPK2 (human),111%
same,residual activity,EPHA3 (human),103%
same,residual activity,EPHB3 (human),98.6%
same,residual activity,ERBB2 (human),91.5%
same,residual activity,FGFR1 (human),80%
same,residual activity,GSK3B (human),96.1%
same,residual activity,IKBKE (human),74.2%
same,residual activity,IRAK1 (human),57.7%
same,residual activity,MAPK10 (human),99%
same,residual activity,MAPK11 (human),103%
same,residual activity,MAPKAPK5 (human),77.6%
same,residual activity,MET (human),1.18%
same,residual activity,MINK1 (human),68.7%
same,residual activity,MKNK2 (human),106%
same,residual activity,MLTK (human),97.4%
same,residual activity,MST4 (human),63.5%
same,residual activity,MYLK (human),84.3%
same,residual activity,MYLK2 (human),73.8%
same,residual activity,NEK1 (human),23.5%
same,residual activity,NEK7 (human),90.3%
same,residual activity,PAK4 (human),101%
same,residual activity,PHKG2 (human),96%
same,residual activity,PLK1 (human),96.9%
same,residual activity,PNCK (human),101%
same,residual activity,PRKCB1 (human),94%
same,residual activity,PRKCI (human),98.7%
same,residual activity,PRKD2 (human),58.3%
same,residual activity,RET (human),23%
same,residual activity,RPS6KA3 KD1 KD2 (human),76.8%
same,residual activity,RPS6KA6 KD1 KD2 (human),67.8%
same,residual activity,RPS6KB1 (human),83.7%
same,residual activity,STK25 (human),91%
same,residual activity,STK3 (human),78.6%
same,residual activity,STK38 (human),102%
same,residual activity,TYRO3 (human),34.7%
same,residual activity,ULK3 (human),55.3%
same,residual activity,YES1 (human),27%
O=C1NC(=O)/C(=C/c2ccc3c(c2)OC(F)(F)O3)S1,residual activity,ACVR1B (human),99.4%
same,residual activity,AURKB (human),102%
same,residual activity,CAMK1 (human),89.9%
same,residual activity,CHEK1 (human),101%
same,residual activity,CLK2 (human),96.6%
same,residual activity,DAPK2 (human),105%
same,residual activity,EPHA3 (human),97.6%
same,residual activity,EPHB3 (human),93.1%
same,residual activity,ERBB2 (human),102%
same,residual activity,FGFR1 (human),94.3%
same,residual activity,GSK3B (human),92.3%
same,residual activity,IKBKE (human),101%
same,residual activity,IRAK1 (human),84.2%
same,residual activity,MAPK10 (human),102%
same,residual activity,MAPK11 (human),95.7%
same,residual activity,MAPKAPK5 (human),98.2%
same,residual activity,MET (human),96.2%
same,residual activity,MINK1 (human),90.1%
same,residual activity,MKNK2 (human),98.3%
same,residual activity,MLTK (human),97.6%
same,residual activity,MST4 (human),86.8%
same,residual activity,MYLK (human),99.4%
same,residual activity,MYLK2 (human),96.6%
same,residual activity,NEK1 (human),79.6%
same,residual activity,NEK7 (human),105%
same,residual activity,PAK4 (human),90%
same,residual activity,PHKG2 (human),95.2%
same,residual activity,PLK1 (human),92.9%
same,residual activity,PNCK (human),96%
same,residual activity,PRKCB1 (human),97.7%
same,residual activity,PRKCI (human),95.9%
same,residual activity,PRKD2 (human),91.5%
same,residual activity,RET (human),102%
same,residual activity,RPS6KA3 KD1 KD2 (human),103%
same,residual activity,RPS6KA6 KD1 KD2 (human),96.5%
same,residual activity,RPS6KB1 (human),85.1%
same,residual activity,STK25 (human),95.7%
same,residual activity,STK3 (human),100%
same,residual activity,STK38 (human),107%
same,residual activity,TYRO3 (human),99.6%
same,residual activity,ULK3 (human),109%
same,residual activity,YES1 (human),87.9%
N#C/C(=C(/N)Sc1ccc(N)cc1)c1ccccc1C(F)(F)F,residual activity,ACVR1B (human),101%
same,residual activity,AURKB (human),99.8%
same,residual activity,CAMK1 (human),91.6%
same,residual activity,CHEK1 (human),97.5%
same,residual activity,CLK2 (human),100%
same,residual activity,DAPK2 (human),112%
same,residual activity,EPHA3 (human),105%
same,residual activity,EPHB3 (human),96.7%
same,residual activity,ERBB2 (human),93%
same,residual activity,FGFR1 (human),108%
same,residual activity,GSK3B (human),102%
same,residual activity,IKBKE (human),102%
same,residual activity,IRAK1 (human),100%
same,residual activity,MAPK10 (human),94.7%
same,residual activity,MAPK11 (human),112%
same,residual activity,MAPKAPK5 (human),89.9%
same,residual activity,MET (human),77.2%
same,residual activity,MINK1 (human),104%
same,residual activity,MKNK2 (human),109%
same,residual activity,MLTK (human),105%
same,residual activity,MST4 (human),97.2%
same,residual activity,MYLK (human),94.9%
same,residual activity,MYLK2 (human),100%
same,residual activity,NEK1 (human),99%
same,residual activity,NEK7 (human),93.9%
same,residual activity,PAK4 (human),99.4%
same,residual activity,PHKG2 (human),96.1%
same,residual activity,PLK1 (human),92.6%
same,residual activity,PNCK (human),98.9%
same,residual activity,PRKCB1 (human),93.1%
same,residual activity,PRKCI (human),102%
same,residual activity,PRKD2 (human),93.4%
same,residual activity,RET (human),101%
same,residual activity,RPS6KA3 KD1 KD2 (human),100%
same,residual activity,RPS6KA6 KD1 KD2 (human),83.9%
same,residual activity,RPS6KB1 (human),102%
same,residual activity,STK25 (human),114%
same,residual activity,STK3 (human),125%
same,residual activity,STK38 (human),93.1%
same,residual activity,TYRO3 (human),110%
same,residual activity,ULK3 (human),106%
same,residual activity,YES1 (human),111%
CCN(CC)CCNC(=O)c1c(C)[nH]c(/C=C2\C(=O)Nc3ccc(Cl)cc32)c1C,residual activity,ACVR1B (human),103%
same,residual activity,AURKB (human),31.9%
same,residual activity,CAMK1 (human),75.9%
same,residual activity,CHEK1 (human),15.1%
same,residual activity,CLK2 (human),15.8%
same,residual activity,DAPK2 (human),86.7%
same,residual activity,EPHA3 (human),92.5%
same,residual activity,EPHB3 (human),100%
same,residual activity,ERBB2 (human),102%
same,residual activity,FGFR1 (human),20.3%
same,residual activity,GSK3B (human),93.1%
same,residual activity,IKBKE (human),29.4%
same,residual activity,IRAK1 (human),14.1%
same,residual activity,MAPK10 (human),104%
same,residual activity,MAPK11 (human),100%
same,residual activity,MAPKAPK5 (human),91.6%
same,residual activity,MET (human),77%
same,residual activity,MINK1 (human),4.4%
same,residual activity,MKNK2 (human),88.8%
same,residual activity,MLTK (human),95.8%
same,residual activity,MST4 (human),73.2%
same,residual activity,MYLK (human),17.6%
same,residual activity,MYLK2 (human),10%
same,residual activity,NEK1 (human),94.7%
same,residual activity,NEK7 (human),99.3%
same,residual activity,PAK4 (human),76.7%
same,residual activity,PHKG2 (human),16.6%
same,residual activity,PLK1 (human),105%
same,residual activity,PNCK (human),70.5%
same,residual activity,PRKCB1 (human),98.1%
same,residual activity,PRKCI (human),91.9%
same,residual activity,PRKD2 (human),11.9%
same,residual activity,RET (human),2.47%
same,residual activity,RPS6KA3 KD1 KD2 (human),15.1%
same,residual activity,RPS6KA6 KD1 KD2 (human),10.5%
same,residual activity,RPS6KB1 (human),41.7%
same,residual activity,STK25 (human),56.1%
same,residual activity,STK3 (human),16.9%
same,residual activity,STK38 (human),95.8%
same,residual activity,TYRO3 (human),23.2%
same,residual activity,ULK3 (human),21.6%
same,residual activity,YES1 (human),5.29%
